Results from PubChem BioAssay (NCI).
“And” between values parts separate entries of the source, which are not always exact repeats. Equal entries are not always repeated.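 Protocol summary: plate cells (96-well), add compound at 5 concentrations, incubate 48 h, interpolate endpoints linearly. GI50 marks 50% less growth. TGI: concentration producing complete growth inhibition.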

Tests used:
Experiment in all cases: NCI tumour cell line growth inhibition, 48 h
SN12K1 renal = system: SN12K1 renal
SNB-78 CNS = system: SNB-78 CNS
LXFL 529 NSCLC = system: LXFL 529 NSCLC
DLD-1 colon = system: DLD-1 colon
DMS 273 small cell lung = system: DMS 273 small cell lung
XF 498 CNS = system: XF 498 CNS
MDA-N = system: MDA-N
P388/ADR leukemia = system: P388/ADR leukemia
DMS 114 small cell lung = system: DMS 114 small cell lung
KM20L2 colon = system: KM20L2 colon
RXF-631 renal = system: RXF-631 renal

SMILES | TGI (SNB-78 CNS) | TGI (LXFL 529 NSCLC) | TGI (DLD-1 colon) | TGI (DMS 273 small cell lung) | TGI (XF 498 CNS) | TGI (DMS 114 small cell lung) | TGI (KM20L2 colon) | TGI (RXF-631 renal) | also measured
C=C(C)C(=O)NC(N)=NC#N | 398 µM | 191 µM | 261 µM | 270 µM | > 96.6 µM and 303 µM | > 82.7 µM and 136 µM | 232 µM |  | TGI (SN12K1 renal): > 56.4 µM; GI50 (SNB-78 CNS): 167 µM; GI50 (DLD-1 colon): 111 µM; GI50 (DMS 273 small cell lung): 130 µM; GI50 (XF 498 CNS): 126 µM; GI50 (MDA-N): 96.8 µM; TGI (MDA-N): 216 µM; TGI (P388/ADR leukemia): 27.7 µM
O=C1c2ccccc2C(=O)N1/N=C\c1ccc(Br)cc1 | > 100 µM | > 100 µM | > 100 µM | > 100 µM | > 100 µM | > 100 µM | > 100 µM | > 100 µM | GI50 (SNB-78 CNS): > 100 µM; GI50 (LXFL 529 NSCLC): > 100 µM; GI50 (DLD-1 colon): > 100 µM; GI50 (DMS 273 small cell lung): > 100 µM; GI50 (XF 498 CNS): > 100 µM; GI50 (DMS 114 small cell lung): > 100 µM; GI50 (KM20L2 colon): > 100 µM; GI50 (RXF-631 renal): > 100 µM
CSc1nc(NC2OCC(OC(C)=O)C(OC(C)=O)C2OC(C)=O)c(N=CC=Nc2c(NC3OCC(OC(C)=O)C(OC(C)=O)C3OC(C)=O)nc(SC)n(C)c2=O)c(=O)n1C (stereo not drawn) |  | > 100 µM | > 100 µM | > 100 µM |  | > 100 µM | > 100 µM |  | 
COc1cccc(/C=C(/C(=O)O)c2cc(OC)c(OC)c(OC)c2)c1 | > 100 µM | > 100 µM | > 100 µM | > 100 µM | > 100 µM | > 100 µM | > 100 µM | > 100 µM | 
C[C@]12CCC[C@H](OC=O)C1(O)C[C@H](C(=O)O)CC2 (stereo partly drawn) | > 100 µM | > 100 µM | > 100 µM | > 100 µM | > 100 µM | > 100 µM | 35.2 µM | > 100 µM | 
CCOC(=O)C12CCCC1(O)N(NC(=O)c1cccc(Cl)c1)C(C)=C2C(=O)OC (stereo not drawn) |  | > 100 µM | > 100 µM | > 100 µM | > 100 µM | > 100 µM | > 100 µM | > 100 µM | 
O=c1[nH]cnc2c(C3OC(CO)C(O)C3O)[nH]nc12 (stereo not drawn) |  |  |  |  |  |  |  |  | TGI (MDA-N): > 100 µM
N=c1nc(N)c2cc3c(N)nc(=N)c3cc12 | 48.5 µM | > 100 µM | > 100 µM | > 100 µM |  | 23.8 µM | > 100 µM | 53.5 µM | TGI (MDA-N): 4.71 µM
Cc1nc(NC(=S)NC(=O)c2ccc(Cl)c(Cl)c2)sc1C(=O)/C=C/c1ccccc1[N+](=O)[O-] | 91.2 µM | 74.3 µM | > 100 µM | 48.3 µM | 35.9 µM |  | 35.9 µM | 56 µM | 
CCCCCCCC[N+](C)(C)Cc1ccc(C[N+](C)(C)CCCCCCCC)cc1 | > 100 µM | > 100 µM | > 100 µM | 36.5 µM |  | > 100 µM | > 100 µM | > 100 µM | 
COc1ccc2cc(C(=O)c3ccccc3C(=O)O)ccc2c1 |  | > 100 µM | > 100 µM | > 100 µM |  | > 100 µM | > 100 µM |  | 
CC1(C)SC2C(C(=O)O)N=C(Cc3ccccc3)N2C1C(=O)O (stereo not drawn) |  |  |  |  |  |  |  |  | TGI (MDA-N): > 100 µM
CC1(C)CC23C(=O)N(c4ccccc4)C(=Nc4ccccc4)NC2=CC(C#N)=C(C#N)C3O1 (stereo not drawn) | > 100 µM | > 100 µM | > 100 µM |  | > 100 µM | > 100 µM | > 100 µM | > 100 µM | 
Nn1c(CCCl)nc2c(Br)cc(Br)cc2c1=O | > 100 µM | 69.3 µM | > 79.4 µM | > 100 µM | 56.1 µM | 50.5 µM | 65.4 µM |  | 
C/C(CC(=O)CCCC(=O)Nc1ccc(Cl)cc1Cl)=N/NC(=O)CC#N | > 100 µM | > 100 µM | > 100 µM | > 100 µM | > 100 µM | > 100 µM | > 100 µM | > 100 µM | 
O=C(O)C1C2C=CC(O2)C1C(=O)Nc1ccccc1 (stereo not drawn) |  |  |  |  |  |  |  |  | TGI (MDA-N): > 100 µM
CCOC(=O)/C(=C/c1ccc(OC)c(OC)c1)C(=O)c1ccccc1 | 56.3 µM | 25.3 µM | 34.5 µM |  | 29.9 µM | 32 µM | 38.7 µM |  | 
c1cncc(C2c3[nH]c4ccccc4c3CCN2CCCN2CCCCC2)c1 (stereo not drawn) | > 100 µM | > 100 µM | > 100 µM | > 100 µM | > 100 µM | > 100 µM | > 100 µM |  | 
C=C(C)C1CC=C(C(=O)O)CC1 (stereo not drawn) |  | > 5000 µM | > 5000 µM | > 5000 µM |  | > 5000 µM | > 5000 µM | 1620 µM | 
COc1cc(C(=O)C/C(CCC(=O)Nc2ccccc2[N+](=O)[O-])=N\NC(=O)C(N)=O)ccc1O | > 100 µM | > 100 µM | > 100 µM | > 100 µM |  | > 100 µM | > 100 µM | > 100 µM | 
CC[C@H](C)c1occ2c(O)c(C(=O)O)c(=O)cc-2c1C |  |  |  |  |  |  |  |  | TGI (MDA-N): > 100 µM
